Data reported in patent US20230167088A1, “1-PYRAZINYLPYRAZOLYL-3-OXYALKYL ACIDS AND THEIR DERIVATIVES, AND THEIR USE FOR CONTROL OF UNDESIRED PLANT GROWTH” (BAYER AKTIENGESELLSCHAFT, priority 2020, published 2023).

Assays:
[1] = system: SETVI; test: Herbicidal pre-emergence action 2a (greenhouse pots, visual scoring); assay type: in vivo, Setaria viridis; settings: dosage 320 g/ha, visual scoring after about 3 weeks vs untreated controls
Text: (§1) [table] a) Seeds of monocotyledonous and dicotyledonous weed plants and crop plants are placed in plastic or organic plant pots and covered with soil. The compounds of the invention, formulated in the form of wettable powders (WP) or as emulsion concentrates (EC), are then applied onto the surface of the covering soil as aqueous suspension or emulsion with addition of 0.5% additive at a water application rate of 600 1/ha (converted). After the treatment, the pots are placed in a greenhouse and kept under good growth conditions for the trial plants. After about 3 weeks, the effect of the preparations is scored visually in comparison with untreated controls as percentages. For example, 100% activity=the plants have died, 0% activity=like control plants. Tables B1 to B15 below show the effects of selected compounds of the general formula (I) according to Tables 1 and 2 on various harmful plants and an application rate corresponding to 320 g/ha and/or 80 g/ha, which were obtained by the experimental procedure mentioned above.

[2] = system: LOLRI; test: Herbicidal post-emergence action 1a (greenhouse pots, visual rating); assay type: in vivo, Lolium rigidum; settings: Dosage 320 g/ha; rated visually about 3 weeks after treatment; 100% = plants have died, 0% = like control plants
Description: (§2) [table] a) Seeds of monocotyledonous and dicotyledonous weeds and crop plants are placed in sandy loam in plastic or organic plant pots, covered with soil and cultivated in a greenhouse under controlled growth conditions. 2 to 3 weeks after sowing, the test plants are treated at the one-leaf stage. The compounds of the invention, formulated in the form of wettable powders (WP) or as emulsion concentrates (EC), are then sprayed onto the green parts of the plants as aqueous suspension or emulsion with addition of 0.5% additive at a water application rate of 600 1/ha (converted). After the test plants have been kept in the greenhouse under optimum growth conditions for about 3 weeks, the activity of the preparations is rated visually in comparison to untreated controls. For example, 100% activity=the plants have died, 0% activity=like control plants. Tables A1 to A15 below show the effects of selected compounds of the general formula (I) according to Tables 1 and 2 on various harmful plants and an application rate corresponding to 320 g/ha and/or 80 g/ha, which were obtained by the experimental procedure mentioned above.

[3] = system: AVEFA; test: Herbicidal pre-emergence action 2a (greenhouse pots, visual scoring); assay type: in vivo, Avena fatua; settings: dosage 320 g/ha, visual scoring after about 3 weeks
Text: as §1

[4] = system: ALOMY; test: Herbicidal post-emergence action 1a (greenhouse pots, visual rating); assay type: in vivo, Alopecurus myosuroides; settings: rated visually about 3 weeks after treatment, 100% = plants have died, 0% = like control plants
Description: as §2

[5] = system: ALOMY; test: Herbicidal pre-emergence action 2a (greenhouse pots, visual scoring); assay type: in vivo, Alopecurus myosuroides; settings: dosage 320 g/ha, visual scoring after about 3 weeks
Text: as §1

[6] = system: POLCO; test: Herbicidal post-emergence action 1a (greenhouse pots, visual rating); assay type: in vivo, Polygonum convolvulus; settings: visual rating about 3 weeks after treatment
Description: as §2

[7] = system: LOLRI; test: Herbicidal pre-emergence action 2a (greenhouse pots, visual scoring); assay type: in vivo, Lolium rigidum; settings: dosage 320 g/ha, visual scoring after about 3 weeks vs untreated controls
Text: as §1

[8] = system: VERPE; test: as above; assay type: in vivo, Veronica persica; settings: dosage 320 g/ha, visual scoring after about 3 weeks vs untreated controls
Text: as §1

[9] = system: AMARE; test: Herbicidal post-emergence action 1a (greenhouse pots, visual rating); assay type: in vivo, Amaranthus retroflexus; settings: visual rating about 3 weeks after treatment
Description: as §2

[10] = system: VERPE; test: as above; assay type: in vivo, Veronica persica; settings: visual rating about 3 weeks after treatment
Description: as §2

[11] = system: POLCO; test: Herbicidal pre-emergence action 2a (greenhouse pots, visual scoring); assay type: in vivo, Polygonum convolvulus; settings: dosage 320 g/ha, visual scoring after about 3 weeks vs untreated controls
Text: as §1

[12] = system: AVEFA; test: Herbicidal post-emergence action 1a (greenhouse pots, visual rating); assay type: in vivo, Avena fatua; settings: Dosage 320 g/ha; rated visually about 3 weeks after treatment; 100% = plants have died, 0% = like control plants
Description: as §2

[13] = system: ECHCG; test: Herbicidal pre-emergence action 2b (doubly sown, 1280 g/ha); assay type: in vivo, Echinochloa crus-galli; settings: doubly sown pots, dosage 1280 g/ha, visual scoring after about 3 weeks
Text: (§3) [table] b) Seeds of mono- and dicotyledonous weed plants are placed in plastic pots in sandy loam soil (doubly sown with one species each of mono- or dicotyledonous weed plants per pot) and covered with soil. The compounds of the invention, formulated in the form of wettable powders (WP) or as emulsion concentrates (EC), are then applied onto the surface of the covering soil as aqueous suspension or emulsion with addition of 0.5% additive at a water application rate equivalent to 600 litres per hectare. After the treatment, the pots are placed in a greenhouse and kept under good growth conditions for the trial plants. After about 3 weeks, the effect of the preparations is scored visually in comparison with untreated controls as percentages. For example, 100% activity=the plants have died, 0% activity=like control plants. Tables B16 to B21 below show the effects of selected compounds of the general formula (I) according to Tables 1 and 2 on various harmful plants and at an application rate corresponding to 1280 g/ha, which were obtained by the experimental procedure mentioned above.

[14] = system: AMARE; test: as above; assay type: in vivo, Amaranthus retroflexus; settings: doubly sown pots, dosage 1280 g/ha, visual scoring after about 3 weeks
Text: as §3

[15] = system: STEME; test: as above; assay type: in vivo, Stellaria media; settings: doubly sown pots, dosage 1280 g/ha, visual scoring after about 3 weeks
Text: as §3

[16] = system: POAAN; test: as above; assay type: in vivo, Poa annua; settings: doubly sown pots, dosage 1280 g/ha, visual scoring after about 3 weeks
Text: as §3

[17] = system: MATIN; test: as above; assay type: in vivo, Matricaria inodora; settings: doubly sown pots, dosage 1280 g/ha, visual scoring after about 3 weeks
Text: as §3

[18] = system: AMARE; test: Herbicidal pre-emergence action 2a (greenhouse pots, visual scoring); assay type: in vivo, Amaranthus retroflexus; settings: dosage 320 g/ha, visual scoring after about 3 weeks vs untreated controls
Text: as §1

[19] = system: ABUTH; test: Herbicidal post-emergence action 1a (greenhouse pots, visual rating); assay type: in vivo, Abutilon theophrasti; settings: dosage 80 g/ha, visual rating about 3 weeks after treatment
Description: as §2

[20] = system: PHBPU; test: as above; assay type: in vivo, Pharbitis purpurea; settings: dosage 80 g/ha, visual rating about 3 weeks after treatment
Description: as §2

## CCOC(=O)[C@@H](C)Oc1nn(-c2cnccn2)c(-c2ccc(F)nc2)c1C1CC1 [Example I-88]
[1]
  Pre-emergence action against SETVI in %: 80%
[2]
  Post-emergence action against LOLRI in %: 100%
[3]
  Pre-emergence action against AVEFA in %: 90%
[4]; Dosage 80 g/ha
  Post-emergence action against ALOMY in %: 80%
[4]; Dosage 320 g/ha
  Post-emergence action against ALOMY in %: 100%
[5]
  Pre-emergence action against ALOMY in %: 100%
[6]; dosage 320 g/ha
  Post-emergence action against POLCO in %: 80%
[7]
  Pre-emergence action against LOLRI in %: 100%
[8]
  Pre-emergence action against VERPE in %: 90%
[9]; dosage 320 g/ha
  Post-emergence action against AMARE in %: 80%
[10]; dosage 320 g/ha
  Post-emergence action against VERPE in %: 80%
[11]
  Pre-emergence action against POLCO in %: 80%
[12]
  Post-emergence action against AVEFA in %: 100%

## C=CCNC(=O)COc1nn(-c2cnccn2)c(-c2cccc(F)c2)c1Br [II-01]
[13]
  Pre-emergence action at 1280 g/ha against ECHCG in %: 90%
[14]
  Pre-emergence action at 1280 g/ha against AMARE in %: 100%
[15]
  Pre-emergence action at 1280 g/ha against STEME in %: 100%
[16]
  Pre-emergence action at 1280 g/ha against POAAN in %: 100%
[17]
  Pre-emergence action at 1280 g/ha against MATIN in %: 100%

## COC(=O)CCNC(=O)[C@@H](C)Oc1nn(-c2cnccn2)c(-c2ccc(F)nc2)c1Br [II-02]
[5]
  Pre-emergence action against ALOMY in %: 80%

## C[C@@H](Oc1nn(-c2cnccn2)c(-c2ccc(F)nc2)c1Br)C(=O)NCC1CC1 [II-06]
[8]
  Pre-emergence action against VERPE in %: 100%

## COC(=O)CNC(=O)COc1nn(-c2cnccn2)c(-c2ccc(F)nc2)c1Br [II-08]
[18]
  Pre-emergence action against AMARE in %: 90%
[9]; dosage 80 g/ha
  Post-emergence action against AMARE in %: 80%

## CCOC(=O)CCNC(=O)COc1nn(-c2cnccn2)c(-c2ccc(F)nc2)c1Br [II-09]
[19]
  Post-emergence action against ABUTH in %: 90%
[6]; dosage 80 g/ha
  Post-emergence action against POLCO in %: 80%
[9]; dosage 80 g/ha
  Post-emergence action against AMARE in %: 90%
[10]; dosage 80 g/ha
  Post-emergence action against VERPE in %: 90%

## O=C(COc1nn(-c2cnccn2)c(-c2ccc(F)nc2)c1Br)NCC1CC1 [II-10]
[9]; dosage 80 g/ha
  Post-emergence action against AMARE in %: 80%
[20]
  Post-emergence action against PHBPU in %: 80%

## CN(C)S(=O)(=O)NC(=O)COc1nn(-c2cnccn2)c(-c2ccc(F)nc2)c1Br [II-12]
[1]
  Pre-emergence action against SETVI in %: 100%
[18]
  Pre-emergence action against AMARE in %: 80%

## CC(C)N(C)S(=O)(=O)NC(=O)COc1nn(-c2cnccn2)c(-c2ccc(F)nc2)c1Br [II-13]
[18]
  Pre-emergence action against AMARE in %: 90%
[9]; dosage 80 g/ha
  Post-emergence action against AMARE in %: 80%

## CS(=O)(=O)NC(=O)COc1nn(-c2cnccn2)c(-c2ccc(F)nc2)c1Br [II-14]
[18]
  Pre-emergence action against AMARE in %: 80%
